Test results from patent US5602099A, “δ opioid receptor antagonists” (Aktiebolaget Astra, priority 1993, dated 1997).
Where two headings read alike, the source gives them in different places. Peptide text beside a SMILES is read from it.

Assays:
δ opioid receptors = target: T1, δ opioid receptors (Mus musculus, UniProt P32300); experiment: Mouse vas deferens (MVD) bioassay, antagonism of electrically evoked contraction inhibition by δ-selective agonists; format: tissue-based; settings: MVD assay, means of 3-8 determinations
T1 construct: Bioassays Using Isolated Organ Preparations; from tissue; host or cells: mouse vas deferens (isolated organ)
T1 sequence (P32300 whole entry): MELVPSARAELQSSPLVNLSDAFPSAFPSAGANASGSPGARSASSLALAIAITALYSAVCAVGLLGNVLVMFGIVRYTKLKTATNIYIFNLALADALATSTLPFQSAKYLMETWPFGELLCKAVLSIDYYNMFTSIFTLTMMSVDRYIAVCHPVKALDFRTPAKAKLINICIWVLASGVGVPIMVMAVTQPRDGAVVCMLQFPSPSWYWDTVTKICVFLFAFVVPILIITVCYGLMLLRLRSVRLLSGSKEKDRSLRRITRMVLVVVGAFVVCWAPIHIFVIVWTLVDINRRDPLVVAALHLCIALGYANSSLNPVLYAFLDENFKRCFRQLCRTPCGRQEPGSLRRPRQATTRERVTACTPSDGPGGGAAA
Source text: a) Biosassys based on inhibition of electrically evoked contractions of the mouse vas deferens (MVD) and of the guinea pig ileum (GPI). In the GPI assay the opioid effect is primarily mediated by μ opioid receptors, whereas in the MVD assay the inhibition of the contractions is mostly due to interaction with δ opioid receptors.
The GPI and MVD bioassays were carded out as reported in P. W. Schiller et al., Biochem. Biophys. Res. Commun 85, 1332-1338 (1978) and J. Di Maio et al., J. Med. Chem. 25, 1432-1438 (1982). A log dose-response curve was determind with [Leu^5 ]enkephalin as standard for each ileum and vas preparation, and IC50 values of the compounds being tested were normalized according to A. A Waterfield et al., Eur. J. Pharmacol. 58, 11-18 (1979). […] These determinations were made with the MVD assay, using three different δ-selective agonists ([Leu^5 ] enkephalin, DPDPE and [D-Ala^2 ]deltorphin I].

δ opioid receptor = target: T2, δ opioid receptor (Rattus norvegicus, UniProt P33533); experiment: δ opioid receptor binding assay, displacement of δ-selective radioligand from rat brain membranes
T2 construct: Male Sprague-Dawley rats (300-350 g) from the Canadian Breeding Laboratories were decapitated and after removal of the cerebellum the brains were homogenized; from tissue; host or cells: rat brain (without cerebellum) membranes, male Sprague-Dawley
T2 sequence (P33533 whole entry): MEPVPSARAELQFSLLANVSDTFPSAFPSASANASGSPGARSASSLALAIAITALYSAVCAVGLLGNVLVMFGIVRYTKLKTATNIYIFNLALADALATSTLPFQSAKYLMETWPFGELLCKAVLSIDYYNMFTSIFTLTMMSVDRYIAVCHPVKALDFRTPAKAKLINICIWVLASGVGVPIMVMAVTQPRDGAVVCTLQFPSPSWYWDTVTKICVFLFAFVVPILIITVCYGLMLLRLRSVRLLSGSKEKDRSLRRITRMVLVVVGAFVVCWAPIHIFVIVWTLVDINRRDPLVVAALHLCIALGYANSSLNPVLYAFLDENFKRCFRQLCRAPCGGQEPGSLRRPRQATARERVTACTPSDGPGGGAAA
Source text: In the case of κ-ligands guinea pig brain homogenates were used, since the relative proportion of κ-binding sites is higher in guinea pig brain than in rat brain. The experimental procedure being used in our laboratory represents a modified version of the binding assay described by Pasternak et al. (Mol. Pharmacol. 11, 340-351, (1975)). Male Sprague-Dawley rats (300-350 g) from the Canadian Breeding Laboratories were decapitated and after removal of the cerebellum the brains were homogenized in 30 volumes of ice-cold standard buffer (50 mM Tris-HCl, pH 7.7). After centrifugation at 30,000×g for 30 min at 4° C. the membranes were reconstituted in the original volume of standard buffer and incubated for 30 min at 37° C. (to realease bound endogenous ligands). […] The incubation was terminated by filtration through Batman GF/B filters under vacuum at 4° C. Following two washings with 5 ml portions of ice-cold standard buffer the filters were transferred to scintillation vials and treated with 1 ml Protosol (New England Nuclear) for 30 min prior to the addition of 0.5 ml acetic acid and 10 ml Aquasol (New England Nuclear). After shaking for 30 min the vials were counted at an efficiency of 40-45%. All experiments were performed in duplicates and repeated at least three times. […] Values of half-maximal inhibition (IC50) of specific binding were obtained graphically from semilogarithmic plots. From the measured IC50-values, binding inhibition constants (Ki) were then calculated based on Cheng and Prusoff's equation (Biochem, Pharmacol. 22, 3099-3102 (1973)). Ratios of the Ki -values in the μ-, δ- and κ-representative binding assays are a measure of the receptor selectivety of the compound under investigation (e.g. Ki^μ /Ki^δ indicates the selectivity for δ-receptors versus μ-receptors).

[1] = Ke (nM) against DPDPE, δ agonist DPDPE
[2] = Ke (nM) against [Leu5]Enkephalin, δ agonist [Leu5]enkephalin
[3] = Ke (nM) against [D-Ala2]deltorphin I, δ agonist [D-Ala2]deltorphin I
[4] = δ agonist DPDPE, read-out: Ke (nM) against DPDPE
[5] = δ agonist [D-Ala2]deltorphin I, read-out: Ke (nM) against [D-Ala2]deltorphin I
[6] = δ agonist [Leu5]enkephalin, read-out: Ke (nM) against [Leu5]Enkephalin

Row | SMILES | Kb (δ opioid receptors; [1]) [nM] | Kb (δ opioid receptors; [2]) [nM] | Kb (δ opioid receptors; [3]) [nM] | δ-selectivity, times less than the δ antagonists of this application (δ opioid receptor; comparison with the δ antagonists described in this patent application) | Kb (δ opioid receptors; [4]) [nM] | Kb (δ opioid receptors; [5]) [nM] | Kb (δ opioid receptors; [6]) [nM] | Ki^μ /Ki^δ (δ opioid receptor; δ-selectivity ratio)
1 | NC(=O)[C@H](CO)NC(=O)[C@@H]1CCCN1C(=O)[C@H](Cc1ccc(O)cc1)NC(=O)[C@H](Cc1ccccc1)NC(=O)[C@H](Cc1c[nH]c2ccccc12)NC(=O)[C@@H]1Cc2ccccc2CN1C(=O)[C@@H](N)Cc1ccc(O)cc1 [HTyrTicTrpPheTyrProSerNH2, H-Tyr-Tic-Trp-Phe-Tyr-Pro-Ser-NH2] (HELM PEPTIDE1{Y.[Tic].W.F.Y.P.S.[am]}$$$$V2.0) | 3.65 | 4.2 | – | – | – | – | – | –
2 | O=C(O)[C@H](Cc1ccccc1)NC(=O)[C@H](Cc1ccccc1)NC(=O)[C@@H]1Cc2ccccc2CN1C(=O)[C@H](Cc1ccc(O)cc1)NCC1CC1 [Tyr(N^α Cpm)-TicPhePheOH, Tyr(N^α Cpm)-Tic-Phe-Phe-OH] | 28.2 | 29.6 | 32.5 | – | – | – | – | –
3 | N[C@@H](Cc1ccc(O)c(Cl)c1)C(=O)N1Cc2ccccc2C[C@H]1C(=O)N[C@@H](Cc1ccccc1)C(=O)N[C@@H](Cc1ccccc1)C(=O)O [HTyr(3-Cl)TicPhePheOH, H-Tyr(3-Cl)-Tic-Phe-Phe-OH] (HELM PEPTIDE1{[N[C@@H](Cc1ccc(O)c(Cl)c1)C(=O)[*:2]].[Tic].F.F}$$$$V2.0) | 20.4 | 18 | 19.9 | – | – | – | – | –
4 | N[C@@H](Cc1ccc(O)cc1)C(=O)N1Cc2ccccc2C[C@H]1C(=O)N[C@@H](Cc1c[nH]c2ccccc12)C(=O)N[C@@H](Cc1ccc([N+](=O)[O-])cc1)C(=O)O [HTyrTicTrpPhe(pNO2)OH, H-Tyr-Tic-Trp-Phe(pNO2)-OH] (HELM PEPTIDE1{Y.[Tic].W.[O=C(O)[C@H](Cc1ccc([N+](=O)[O-])cc1)N[*:1]]}$$$$V2.0) | 4.4 | 1.83 | 2.27 | – | – | – | – | –
5 | N[C@@H](Cc1ccc(O)cc1)C(=O)N1Cc2ccccc2C[C@H]1C(=O)NC1(C(=O)N[C@@H](Cc2ccccc2)C(=O)O)CCc2ccccc2C1 (stereo partly drawn) [HTyrTicAtcPheOH, H-Tyr-Tic-Atc-Phe-OH] (HELM PEPTIDE1{Y.[Tic].[O=C(C1(N[*:1])CCc2ccccc2C1)[*:2]].F}$$$$V2.0) | 1.85 | 1.63 | 0.927 | – | – | – | – | –
6 | CCN(CC)[C@@H](Cc1ccc(O)cc1)C(=O)N1Cc2ccccc2C[C@H]1C(=O)N[C@@H](Cc1ccccc1)C(=O)N[C@@H](Cc1ccccc1)C(=O)O [Tyr(N^α Et2)-TicPhePheOH, Tyr(N^α Et2)-Tic-Phe-Phe-OH] | 0.893 | 3.39 | 2.3 | – | – | – | – | –
7 | C=CCN(CC=C)[C@@H](Cc1ccc(O)cc1)C(=O)NC(C)(C)C(=O)NC(C)(C)C(=O)N[C@@H](Cc1ccccc1)C(=O)N[C@@H](CC(C)C)C(=O)O [ICI 174864, N,N-diallyl-Tyr-Aib-Aib-Phe-Leu-OH, reference compound] (HELM PEPTIDE1{[C=CCN(CC=C)[C@@H](Cc1ccc(O)cc1)C(=O)[*:2]].[Aib].[Aib].F.L}$$$$V2.0) | – | – | – | 10-300 times | – | – | – | –
8 | N[C@@H](Cc1ccc(O)cc1)C(=O)N1Cc2ccccc2C[C@H]1C(=O)N[C@@H](Cc1c[nH]c2ccccc12)C(=O)O [HTyrTicTrpOH] (HELM PEPTIDE1{Y.[Tic].W}$$$$V2.0) | 6.23 | 10.6 | 5.36 | – | – | – | – | –
9 | N[C@@H](Cc1ccc(O)cc1)C(=O)N1Cc2ccccc2C[C@H]1CN[C@@H](CCc1ccccc1)C(=O)N[C@@H](Cc1ccccc1)C(=O)O [HTyrTic.psi.[CH2NH]HfePheOH, H-Tyr-Tic-.PSI.[CH2 --NH]Hfe-Phe-OH] | 2.64 | 2.22 | 1.9 | – | – | – | – | –
10 | N[C@@H](Cc1ccc(O)cc1)C(=O)N1Cc2ccccc2C[C@H]1C(=O)N[C@@H](Cc1ccccc1)C(=O)N[C@@H](Cc1ccccc1)C(=O)O [HTyrTicPhePheOH, H-Tyr-Tic-Phe-Phe-OH] (HELM PEPTIDE1{Y.[Tic].F.F}$$$$V2.0) | – | – | – | – | 4.8 | 2.96 | 5.86 | –
11 | Cc1cc(O)cc(C)c1C[C@H](N)C(=O)N1Cc2ccccc2C[C@H]1C(=O)N[C@@H](Cc1ccccc1)C(=O)N[C@@H](Cc1ccccc1)C(=O)O [HDmtTicPhePheOH, H-Dmt-Tic-Phe-Phe-OH] (HELM PEPTIDE1{[Cc1cc(O)cc(C)c1C[C@H](N)C(=O)[*:2]].[Tic].F.F}$$$$V2.0) | – | – | – | – | 0.196 | 0.13 | 0.169 | –
12 | NC(=O)[C@H](Cc1ccccc1)NC(=O)[C@H](Cc1c[nH]c2ccccc12)NC(=O)[C@@H]1Cc2ccccc2CN1C(=O)[C@@H](N)Cc1ccc(O)cc1 [HTyrTicTrpPheNH2, H-Tyr-Tic-Trp-Phe-NH2] (HELM PEPTIDE1{Y.[Tic].W.F.[am]}$$$$V2.0) | 4.65 | 3.24 | 2.31 | – | – | – | – | 709
13 | Cc1cc(O)cc(C)c1C[C@H](N)C(=O)N1Cc2ccccc2C[C@H]1C(=O)N[C@@H](Cc1ccccc1)C(=O)N[C@@H](Cc1ccccc1)C(N)=O [HDmtTicPhePheNH2, H-Dmt-Tic-Phe-Phe-NH2] (HELM PEPTIDE1{[Cc1cc(O)cc(C)c1C[C@H](N)C(=O)[*:2]].[Tic].F.F.[am]}$$$$V2.0) | – | 0.221 | 0.26 | – | 0.209 | – | – | –
14 | N[C@@H](Cc1ccc(O)c(Br)c1)C(=O)N1Cc2ccccc2C[C@H]1C(=O)N[C@@H](Cc1ccccc1)C(=O)N[C@@H](Cc1ccccc1)C(=O)O [HTyr(3-Br)TicPhePheOH, H-Tyr(3-Br)-Tic-Phe-Phe-OH] (HELM PEPTIDE1{[N[C@@H](Cc1ccc(O)c(Br)c1)C(=O)[*:2]].[Tic].F.F}$$$$V2.0) | 31.3 | 18.2 | 23.9 | – | – | – | – | –
15 | NC(=O)[C@H](CO)NC(=O)[C@@H]1CCCN1C(=O)[C@H](Cc1ccc(O)cc1)NC(=O)[C@H](Cc1ccc([N+](=O)[O-])cc1)NC(=O)[C@H](Cc1c[nH]c2ccccc12)NC(=O)[C@@H]1Cc2ccccc2CN1C(=O)[C@@H](N)Cc1ccc(O)cc1 [HTyrTicTrpPhe(pNO2)TyrProSerNH2, H-Tyr-Tic-Trp-Phe (pNO2) -Tyr-Pro-Ser-NH2] (HELM PEPTIDE1{Y.[Tic].W.[O=C([C@H](Cc1ccc([N+](=O)[O-])cc1)N[*:1])[*:2]].Y.P.S.[am]}$$$$V2.0) | 2.48 | 3.68 | 3.91 | – | – | – | – | –
16 | CCCC[C@H](NC(=O)[C@H](CC(C)C)NC(=O)[C@H](Cc1ccccc1)NC(=O)[C@H](Cc1ccccc1)NC(=O)[C@@H]1Cc2ccccc2CN1C(=O)[C@@H](N)Cc1ccc(O)cc1)C(=O)N[C@@H](CC(=O)O)C(N)=O [HTyrTicPhePheLeuNleAspNH2, H-Tyr-Tic-Phe-Phe-Leu-Nle-Asp-NH2] (HELM PEPTIDE1{Y.[Tic].F.F.L.[Nle].D.[am]}$$$$V2.0) | 10.4 | 21.4 | 10.8 | – | – | – | – | –
17 | N[C@@H](Cc1ccc(O)cc1)C(=O)N1Cc2ccccc2C[C@H]1C(=O)N[C@@H](Cc1ccccc1)C(=O)N[C@@H](Cc1ccc([N+](=O)[O-])cc1)C(=O)O [HTyrTicPhePhe(pNO2)OH, H-Tyr-Tic-Phe-Phe(pNO2)-OH] (HELM PEPTIDE1{Y.[Tic].F.[O=C(O)[C@H](Cc1ccc([N+](=O)[O-])cc1)N[*:1]]}$$$$V2.0) | 3.3 | 3.62 | 2.79 | – | – | – | – | –
18 | N[C@@H](Cc1ccc(O)c(F)c1)C(=O)N1Cc2ccccc2C[C@H]1C(=O)N[C@@H](Cc1ccccc1)C(=O)N[C@@H](Cc1ccccc1)C(=O)O [HTyr(3-F)TicPhePheOH, H-Tyr(3-F)-Tic-Phe-Phe-OH] (HELM PEPTIDE1{[N[C@@H](Cc1ccc(O)c(F)c1)C(=O)[*:2]].[Tic].F.F}$$$$V2.0) | 13 | 5.88 | 8.73 | – | – | – | – | –
19 | CN[C@@H](Cc1ccc(O)cc1)C(=O)N1Cc2ccccc2C[C@H]1CN[C@@H](CCc1ccccc1)C(=O)N[C@@H](Cc1ccccc1)C(=O)O [Tyr(NMe)-Tic.psi.[CH2NH]HfePheOH, Tyr(NMe)-Tic.PSI.[CH2 --NH]Hfe-Phe-OH] | 0.902 | 0.78 | 0.418 | – | – | – | – | –
